Measurements from patent US20090233910A1, “Npy antagonists, preparation and uses” (CEREP, priority 2005, published 2009).

Columns and labels:
[1] = molecular target: T1, NPY Y1 receptor (Homo sapiens, UniProt P25929); test: cAMP measurement test in SK-N-MC cells (shift of NPY dose-effect curves, forskoline-stimulated); format: cell-based; conditions: Schild analysis vs NPY, read-out: pA2 Y1 (converted)
T1 construct: host or cells: SK-N-MC cells (whole-cell suspension)
T1 sequence (P25929 1-384): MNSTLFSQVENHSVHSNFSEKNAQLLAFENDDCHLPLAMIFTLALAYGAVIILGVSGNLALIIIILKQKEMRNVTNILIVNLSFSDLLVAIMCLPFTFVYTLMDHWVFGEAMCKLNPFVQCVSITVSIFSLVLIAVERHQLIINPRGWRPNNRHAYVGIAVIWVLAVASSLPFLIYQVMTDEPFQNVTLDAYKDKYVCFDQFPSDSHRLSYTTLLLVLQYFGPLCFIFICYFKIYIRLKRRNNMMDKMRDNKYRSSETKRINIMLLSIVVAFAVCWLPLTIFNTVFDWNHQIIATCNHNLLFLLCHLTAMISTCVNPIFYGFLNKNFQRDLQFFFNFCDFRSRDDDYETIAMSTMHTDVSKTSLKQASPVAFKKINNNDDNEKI
Experimental: The SK-N-MC cells are cultured in 96-well plates. After aspirating the culture medium, the cells are washed with a phosphate buffer pH 7.4 (Invitrogen ref. 14190-094), then lifted with a Versene solution (Invitrogen, ref 15040-033). The cells are centrifuged at 500×g for 10 minutes at 4° C. They are resuspended in a stimulation buffer containing isobutyl-methyl-xanthine in sufficient concentration to inhibit the phosphodiesterases (Flashplate kit, Perkin Elmer). The tested compounds are added 10 minutes before depositing the NPY (Bachem, H3322) in variable concentration, then the 300 nM forskoline (Sigma, F6886). The cells are in cubated 1 hour at ambient temperature to allow cAMP production whose levels are measured using the Flashplate method after 2 hours incubation with the cAMP tracer [^125I]. The results are expressed in pA2 form observing the displacement of NPY dose-effect curves in the absence and presence of increasing concentrations of test compound [Schild, 1949, pAx and competitive drug antagonism, Br. J. Pharmacol., 4, 277-280].

[2] = molecular target: T2, NPY Y2 receptor (Homo sapiens, UniProt P49146); test: Binding test to the NPY Y2 receptor ([125I]-PYY, KAN.TS cell suspension)
T2 construct: host or cells: KAN.TS cells (whole-cell suspension)
T2 sequence (P49146 1-381): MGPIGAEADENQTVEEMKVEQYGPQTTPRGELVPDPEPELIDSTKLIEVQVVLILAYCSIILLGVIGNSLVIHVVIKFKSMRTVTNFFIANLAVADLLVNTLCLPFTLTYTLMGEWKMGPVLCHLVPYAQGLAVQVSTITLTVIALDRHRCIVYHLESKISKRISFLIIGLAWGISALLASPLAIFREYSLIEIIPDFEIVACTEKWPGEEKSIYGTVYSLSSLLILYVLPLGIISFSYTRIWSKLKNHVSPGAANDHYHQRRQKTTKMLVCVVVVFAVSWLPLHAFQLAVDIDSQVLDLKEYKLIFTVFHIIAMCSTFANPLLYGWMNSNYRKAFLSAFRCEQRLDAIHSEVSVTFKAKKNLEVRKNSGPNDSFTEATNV
Experimental: The KAN.TS cells (Amersham RPNQ0081) are cultured at 37° C. in DMEM Glutamax medium (Life Technology ref. 61965026) containing 15% foetal calf serum (Invitrogen), 1% L-Glutamine (Invitrogen ref.250300-032), 50 IU/ml penicillin and 50 μg/ml of streptomycin (Invitrogen ref. 15070022) in a humid atmosphere containing 5% CO2.
After aspirating the culture medium, the cells are washed with phosphate buffer pH 7.4 (Sigma ref. D5652), then lifted with a solution of PBS^−, 0.5 mM EDTA (ethylenediaminetetraacetic acid) (Sigma ref ED 2SS). […] The cells are counted and centrifuged at 1500 rpm for 10 min then resuspended in the freeze buffer and aliquoted into ten million cells per millilitre of freeze buffer, and stored at −70° C.
The cell suspension with 25000 cells/ml is incubated 1 h at 37° C. in an incubation buffer pH 7.4 containing 50 mM HEPES/NaOH, 2.5 mM calcium chloride, 1 mM magnesium chloride, 0.025% sodium azide, 1 mg/ml bovine albumin and 15 pM of [^125I]-PYY (Perkin Elmer, NEX341). […] The radioactivity deposited on the filter is measured by liquid scintillation count (TopCount, Packard). Non-specific binding is determined in the presence of 1 μM NPY (Bachem, H3322). […]

## CCCCN1CCC(Oc2ccc(C(=O)Nc3ccc(Oc4ccc(NC(=O)NC(CC)CC)cc4OC)cc3)cc2)CC1 [Example 103, 4-(1-Butyl-piperidin-4-yloxy)-N-(4-{4-[3-(1-ethyl-propyl)-ureido]-2-methoxy-phenoxy}-phenyl)-benzamide]
[1]
  Kb: 6.31 nM
[2]; KAN.TS cells, [125I]-PYY
  IC50: > 10000 nM
[2]; inhibition of specific binding at 10 μM of compound, read-out: % Inh at 10 μM Y2
  inhibition at 10 µM: 10%
